Assay results published in patent US20190284168A1, “PYRAZOLE DERIVATIES AS SGC STIMULATORS” (IRONWOOD PHARMACEUTICALS, INC., priority 2014, published 2019).

Molecular target: T1, soluble guanylate cyclase (sGC) (Homo sapiens, UniProt Q02108+Q02153)
T1 construct: endogenously expressing soluble guanylate cyclase (sGC); endogenous in cells; host or cells: HEK293
T1 sequence (Q02153 1-619): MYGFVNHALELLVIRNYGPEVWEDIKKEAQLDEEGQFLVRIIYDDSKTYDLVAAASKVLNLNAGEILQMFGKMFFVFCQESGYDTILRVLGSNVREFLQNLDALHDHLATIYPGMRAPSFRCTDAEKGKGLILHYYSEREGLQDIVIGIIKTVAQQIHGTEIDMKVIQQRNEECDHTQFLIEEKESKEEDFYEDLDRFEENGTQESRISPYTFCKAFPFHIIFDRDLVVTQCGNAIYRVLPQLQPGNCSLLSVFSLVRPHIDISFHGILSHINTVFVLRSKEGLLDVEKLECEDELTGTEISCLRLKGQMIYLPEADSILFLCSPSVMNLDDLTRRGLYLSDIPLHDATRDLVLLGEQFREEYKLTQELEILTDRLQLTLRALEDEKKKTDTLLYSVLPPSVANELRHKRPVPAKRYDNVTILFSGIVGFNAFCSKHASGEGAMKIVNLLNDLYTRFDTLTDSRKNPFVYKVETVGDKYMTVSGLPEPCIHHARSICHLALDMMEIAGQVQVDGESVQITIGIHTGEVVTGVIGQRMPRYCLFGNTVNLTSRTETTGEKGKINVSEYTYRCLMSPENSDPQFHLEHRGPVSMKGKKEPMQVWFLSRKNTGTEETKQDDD
T1 sequence (Q02108 1-690): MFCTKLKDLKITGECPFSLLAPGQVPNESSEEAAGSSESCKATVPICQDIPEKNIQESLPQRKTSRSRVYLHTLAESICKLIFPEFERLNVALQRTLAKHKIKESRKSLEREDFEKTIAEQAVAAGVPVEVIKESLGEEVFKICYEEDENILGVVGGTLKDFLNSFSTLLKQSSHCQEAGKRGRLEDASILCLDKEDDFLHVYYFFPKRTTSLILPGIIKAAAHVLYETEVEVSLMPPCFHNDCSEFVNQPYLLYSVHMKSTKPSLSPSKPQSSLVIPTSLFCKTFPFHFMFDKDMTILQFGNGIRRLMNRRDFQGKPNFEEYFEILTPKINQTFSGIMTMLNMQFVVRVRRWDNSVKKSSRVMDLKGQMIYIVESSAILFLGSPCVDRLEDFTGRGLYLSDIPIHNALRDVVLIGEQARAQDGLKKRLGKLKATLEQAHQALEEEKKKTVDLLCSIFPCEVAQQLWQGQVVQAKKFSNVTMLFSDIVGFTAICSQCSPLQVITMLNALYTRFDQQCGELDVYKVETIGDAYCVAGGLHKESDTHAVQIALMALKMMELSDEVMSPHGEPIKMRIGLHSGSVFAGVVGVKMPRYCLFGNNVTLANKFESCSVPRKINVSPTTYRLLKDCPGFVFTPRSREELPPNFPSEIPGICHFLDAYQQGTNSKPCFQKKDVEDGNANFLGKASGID
Test: sGC-HEK-cGMP assay with LC/MS detection
Assay type: cell-based
Details: not given

| SMILES | EC50 |
| --- | --- |
| Oc1cc(CNc2nc(-c3cc(-c4ccon4)n(Cc4ccccc4F)n3)ncc2F)on1 [Compound 28] | < 100 nM |

Same assay, conditions: HEK293 whole cells, LC/MS detection of cGMP, 10 μM DETA-NONOate; 50% of high control response (30 μM Compound Y); read-out: Absolute EC50 (nM)- binned (~)

| SMILES | EC50 |
| --- | --- |
| CNc1cc(-c2ncc(F)c(O)n2)nn1Cc1ccccc1F [Compound 1] | > 1000 nM |
| CC(C)(NC(=O)OCc1ccccc1)C(=O)Nc1ccnc(-c2cc(-c3ccon3)n(Cc3ccccc3F)n2)n1 [Compound 5] | > 1000 nM |
| NC(=O)CNc1cnc(-c2cc(-c3ccon3)n(Cc3ccccc3F)n2)nc1 [Compound 6] | > 1000 nM |
| O=[N+]([O-])c1cnc(-c2cc(-c3ccon3)n(Cc3ccccc3F)n2)nc1NCCO [Compound 7] | > 30000 nM |
| OCCNc1cnc(-c2cc(-c3ccon3)n(Cc3ccccc3F)n2)nc1 [Compound 8] | 100 to 1000 nM |
| NCCNc1cnc(-c2cc(-c3ccon3)n(Cc3ccccc3F)n2)nc1 [Compound 9] | > 1000 nM |
| Nc1nc(-c2cc(-c3ccon3)n(Cc3ccccc3F)n2)ncc1NCCO [Compound 10] | > 1000 nM |
| Fc1ccccc1Cn1nc(-c2ncc(F)c(Nc3nnc(C(F)(F)F)[nH]3)n2)cc1-c1ccon1 [Compound 12] | > 30000 nM |
| O=C(NNC(=O)C(F)(F)F)Nc1nc(-c2cc(-c3ccon3)n(Cc3ccccc3F)n2)ncc1F [Compound 13] | > 1000 nM |
| Cc1nnc(Nc2nc(-c3cc(-c4ccon4)n(Cc4ccccc4F)n3)ncc2F)o1 [Compound 14] | 100 to 1000 nM |
| NC(=O)C(F)(F)CNc1nc(-c2cc(-c3ccon3)n(Cc3ccccc3F)n2)ncc1F [Compound 15] | < 100 nM |
| Fc1ccccc1Cn1nc(-c2ncc(F)c(N3CCCO3)n2)cc1-c1ccon1 [Compound 16] | 100 to 1000 nM |
| Nc1nc(-c2cc(-c3ccon3)n(Cc3ccccc3F)n2)nc(N)c1NS(=O)(=O)CCC(F)(F)F [Compound 19] | > 1000 nM |
| COCc1cc(-c2ncc(F)c(NCC(O)(C(N)=O)C(F)(F)F)n2)nn1Cc1ccccc1F (stereo not drawn) [Compound 20] | > 30000 nM |
| OCC(O)CNc1cnc(-c2cc(-c3ccon3)n(Cc3ccccc3F)n2)nc1 (stereo not drawn) [Compound 21] | > 1000 nM |
| CS(=O)(=O)CCNc1cnc(-c2cc(-c3ccon3)n(Cc3ccccc3F)n2)nc1 [Compound 22] | > 1000 nM |
| CS(=O)(=O)NCCNc1cnc(-c2cc(-c3ccon3)n(Cc3ccccc3F)n2)nc1 [Compound 24] | 100 to 1000 nM |
| OC(CNc1nc(-n2cc(-c3ccon3)c(Cc3ccccc3F)n2)ncc1F)(C(F)(F)F)C(F)(F)F [Compound 26] | 100 to 1000 nM |
| CC1(C#N)C(=O)Nc2nc(-c3cc(-c4ccon4)n(Cc4ccccc4F)n3)nc(N)c21 (stereo not drawn) [Compound 29] | < 100 nM |
| NC(=O)C(O)(CNc1nc(-n2cc(-c3ccon3)c(Cc3ccccc3F)n2)ncc1F)C(F)(F)F (stereo not drawn) [Compound 30] | 100 to 1000 nM |

| SMILES | EC50 |
| --- | --- |
| CC(C)(N)C(=O)Nc1ccnc(-c2cc(-c3ccon3)n(Cc3ccccc3F)n2)n1 [Compound 33] | > 1000 nM |
| Fc1ccccc1Cn1nc(-c2ncc(F)c(N3CCCCO3)n2)cc1-c1ccon1 [Compound 34] | 100 to 1000 nM |
| CC(C(N)=O)C(=O)Nc1ccnc(-c2cc(-c3ccon3)n(Cc3ccccc3F)n2)n1 (stereo not drawn) [Compound 35] | > 1000 nM |
| CC(O)(C(N)=O)C(=O)Nc1ccnc(-c2cc(-c3ccon3)n(Cc3ccccc3F)n2)n1 (stereo not drawn) [Compound 36] | 100 to 1000 nM |
| NC(=O)Cc1c[nH]n(-c2nc(-c3cc(-c4ccon4)n(Cc4ccccc4F)n3)ncc2F)c1=O [Compound 40] | > 1000 nM |
| NC(=O)Cc1cn(-c2nc(-c3cc(-c4ccon4)n(Cc4ccccc4F)n3)ncc2F)[nH]c1=O [Compound 41] | > 1000 nM |
| Nc1nnc(C(O)(CNc2nc(-c3cc(-c4ccon4)n(Cc4ccccc4F)n3)ncc2F)C(F)(F)F)o1 (stereo not drawn) [Compound 42] | 100 to 1000 nM |
| O=c1n(-c2nc(-c3cc(-c4ccon4)n(Cc4ccccc4F)n3)ncc2F)nc2n1CCNC2 [Compound 43] | > 1000 nM |
| CCC(C)(NC(=O)OCc1ccccc1)C(=O)Nc1ccnc(-c2cc(-c3ccon3)n(Cc3ccccc3F)n2)n1 (stereo not drawn) [Compound 46] | > 1000 nM |
| CCC(C)(N)C(=O)Nc1ccnc(-c2cc(-c3ccon3)n(Cc3ccccc3F)n2)n1 (stereo not drawn) [Compound 47] | 100 to 1000 nM |
| CC(C)(C(N)=O)C(=O)Nc1nc(-c2cc(-c3ccon3)n(Cc3ccccc3F)n2)ncc1F [Compound 48] | > 1000 nM |
| CC(C)(C(=O)O)C(=O)Nc1ccnc(-c2cc(-c3ccon3)n(Cc3ccccc3F)n2)n1 [Compound 49] | > 1000 nM |
| CC(C)(C(N)=O)C(=O)Nc1ccnc(-c2cc(-c3ccon3)n(Cc3ccccc3F)n2)n1 [Compound 51] | 100 to 1000 nM |
| Cc1nnc(C(O)(CNc2nc(-c3cc(-c4ccon4)n(Cc4ccccc4F)n3)ncc2F)C(F)(F)F)o1 (stereo not drawn) [Compound 52] | < 100 nM |
| NC(=O)c1nnc2n1CCN(c1nc(-c3cc(-c4ccon4)n(Cc4ccccc4F)n3)ncc1F)C2 [Compound 54] | < 100 nM |
| CCC(C)(N)CNc1nc(-c2cc(-c3ccon3)n(Cc3ccccc3F)n2)ncc1F (stereo not drawn) [Compound 55] | 100 to 1000 nM |
| COc1nn(-c2nc(-c3cc(-c4ccon4)n(Cc4ccccc4F)n3)ncc2F)cc1CC(N)=O [Compound 57] | > 30000 nM |
| CC1(C(=O)Nc2ccnc(-c3cc(-c4ccon4)n(Cc4ccccc4F)n3)n2)CCNC1=O (stereo not drawn) [Compound 59] | 100 to 1000 nM |
| NC(=O)C1CCN(c2nc(-c3cc(-c4ccon4)n(Cc4ccccc4F)n3)ncc2F)CC1 [Compound 60] | < 100 nM |
| CCOC(=O)C(C)(C)c1nnc(-c2cc(-c3ccon3)n(Cc3ccccc3F)n2)nc1OC [Compound 61] | > 1000 nM |

| SMILES | EC50 |
| --- | --- |
| Cn1ccnc1C(O)(CNc1nc(-c2cc(-c3ccon3)n(Cc3ccccc3F)n2)ncc1F)C(F)(F)F (stereo not drawn) [Compound 64] | 100 to 1000 nM |
| O=C(NC1CC1)C(O)(CNc1nc(-c2cc(-c3ccon3)n(Cc3ccccc3F)n2)ncc1F)C(F)(F)F (stereo not drawn) [Compound 65] | < 100 nM |
| CCOC(=O)C(C)(C)C(=O)Nc1ccnc(-c2cc(-c3ccon3)n(Cc3ccccc3F)n2)n1 [Compound 66] | > 1000 nM |
| CC(N)(CNc1nc(-c2cc(-c3ccon3)n(Cc3ccccc3F)n2)ncc1F)C1CC1 (stereo not drawn) [Compound 67] | 100 to 1000 nM |
| NC1(CNc2nc(-c3cc(-c4ccon4)n(Cc4ccccc4F)n3)ncc2F)CC1 [Compound 68] | 100 to 1000 nM |
| OC(CNc1nc(-c2cc(-c3ccon3)n(Cc3ccccc3F)n2)ncc1F)(c1nnc(C2CC2)o1)C(F)(F)F (stereo not drawn) [Compound 69, 2-(5-cyclopropyl-1,3,4-oxadiazol-2-yl)-1,1,1-trifluoro-3-((5-fluoro-2-(1-(2-fluorobenzyl)-5-(isoxazol-3-yl)-1H-pyrazol-3-yl)pyrimidin-4-yl)amino)propan-2-ol] | < 100 nM |
| CC(=O)c1cc(-c2ncc(F)c(NCc3cc(=O)[nH]o3)n2)nn1Cc1ccccc1F [Compound 70] | 100 to 1000 nM |
| CC(=O)c1cc(-c2ncc(F)c(N3CCNC(C(F)(F)F)C3)n2)nn1Cc1ccccc1F (stereo not drawn) [Compound 71] | 100 to 1000 nM |
| CC(=O)c1cc(-c2ncc(F)c(NC[C@@H](C(=O)O)C(C)C)n2)nn1Cc1ccccc1F [Compound 72] | 100 to 1000 nM |
| CC(=O)c1cc(-c2ncc(F)c(N(C)C[C@@H](C(=O)O)C(C)C)n2)nn1Cc1ccccc1F [Compound 73] | > 1000 nM |
| CCOC(=O)[C@H](CN(C)c1nc(-c2cc(C(C)=O)n(Cc3ccccc3F)n2)ncc1F)C(C)C [Compound 74] | 100 to 1000 nM |
| O=C(Cc1cc(=O)o[nH]1)Nc1ccnc(-c2cc(-c3ccon3)n(Cc3ccccc3F)n2)n1 [Compound 75] | 100 to 1000 nM |
| CC(=O)c1cc(-c2ncc(F)c(NCCS(N)(=O)=O)n2)nn1Cc1ccccc1F [Compound 76] | 100 to 1000 nM |
| CC(=O)c1cc(-c2ncc(F)c(N3CCNC(=O)C3)n2)nn1Cc1ccccc1F [Compound 77] | > 1000 nM |
| CC(=O)c1cc(-c2ncc(F)c(N3CCCC(F)(F)C3)n2)nn1Cc1ccccc1F [Compound 79] | 100 to 1000 nM |
| COC1CCN(c2nc(-c3cc(C(C)=O)n(Cc4ccccc4F)n3)ncc2F)C1 (stereo not drawn) [Compound 80] | 100 to 1000 nM |
| CN(C)c1cc(-c2ncc(F)c(O)n2)nn1Cc1ccccc1F [Compound 81] | > 1000 nM |
| CC(=O)c1cc(-c2ncc(F)c(N)n2)nn1Cc1ccccc1F [Compound 84] | > 1000 nM |
| CC(=O)c1cc(-c2ncc(F)c(NCC(O)(C(N)=O)C(F)(F)F)n2)nn1Cc1ccccc1F (stereo not drawn) [Compound 85] | 100 to 1000 nM |
